Assays:
[1] = test system: yeast-induced fever; assay: Antipyretic activity on yeast-induced fever in rats; type: in vivo, rats (Wistar, male); conditions: rat, 2 hours after administration
Protocol: Measurement of Antipyretic Activity on Yeast-Induced Fever in Rats
Wistar Strain male rats (150-190 g) were fasted for one day before the experiment, and were used. Compounds of number (1) and (2) in Table 1 were formed to the tartaric acid salt and these salts were dissolved in 0.9% physiological saline solution at the rate of 10 mg/10 ml and these solution were used as test compound solution. In a control, 0.9% physiological saline solution was used. After rat rectal temperature was measured, 1 ml/100 g of body weight of 7.5% yeast/0.9% physiological saline solution was injected s.c. at dorsal position. Then, rat rectal temperature was measured at 4 hour after the injection of yeast and rats showing the increase rectal temperature by 1 degree or more were selected and used. Test compound solution was administered s.c. at 5 hours after the injection of yeast. The rectal temperature was measured 2 hours after the administration of test compound solution. The results were described with the difference between the rectal temperature before and after the administration of test compound solution.

[2] = test system: pain threshold (tail-pressure); assay: Tail-pressure method, experiment combined with morphine antagonist (levallorphan); type: in vivo, mice (Std:ddY, male); conditions: 10 mg/kg i.v., mean ± standard error
Protocol: (4) Experiment Combined with Morphine Antagonist
Std:ddY Strain male mice (20-25 g) were fasted for one day before the experiment, and were used. In this experiment, the tartaric acid salt of a compound of number (2) in Table 1, morphine hydrochloride and levallorphan hydrochloride of an opioid antagonist were used. The tartaric acid salt of a compound of number (2) was dissolved in 0.9% physiological saline solution at the rate of 10 mg/2 ml. Morphine hydrochloride was dissolved in 0.9% physiological saline solution at the rate of 10 mg/2 ml. Levallorphan hydrochloride was dissolved in 0.9% physiological saline solution at the rate of 1 mg/10 ml. As a control, 0.9% physiological saline solution was used. A tail-pressure apparatus was used in this experiments. Before the administration of levallorphan hydrochloride, the pain threshold was measured twice at intervals of 30 minutes and those mice indicating a pain threshold of 50 to 100 mmHg were selected and used. Levallorphan hydrochloride solution mentioned above was administered s.c. at the rate of 10 ml/kg and, 30 minutes later, the above tartaric acid salt solution compound of number (2) or morphine hydrochloride solution was injected i.v. at the rate of 2 ml/kg, respectively. Each pain threshold was measured 10, 20 and 30 minutes after an intravenous injection. In control group, 0.9% physiological saline solution was injected i.v. at the rate of 2 ml/kg at 30 minutes after s.c. administration at 10 ml/kg of 0.9% physiological saline solution. In the single administration group of levallorphan hydrochloride, levallorphan hydrochloride solution mentioned above was administered s.c. at the rate of 10 ml/kg and, 30 minutes later, 0.9% physiological saline solution was injected i.v. at the rate of 2 ml/kg. The results were described in Table 10 as an inhibition rate (%) indicating in the preceding paragraph (1).

[3] = test system: pain threshold (tail-pressure); assay: Analgesic activity by the tail-pressure method (s.c.); type: in vivo, mice (Std:ddY, male); conditions: mouse, 10 mg/10 ml at 10 ml/kg s.c., 1 hour after administration, mean ± standard error
Protocol: (1) Measurement of Analgesic Activity by the Tail-Pressure Method
Std:ddY Strain male mice (20-25 g) were fasted for one day before the experiment, and were used. After test compounds shown in Table 1 was formed to a salt with tartaric acid, this salt was dissolved in 0.9% physiological saline solutions at the rate of 10 mg/10 ml to give the test compoun d solution . As a control, 0.9% physiological saline solution was used. A tail-pressure apparatus was used in this experiments. Before the administration of test compounds, the pain threshold was measured twice at intervals of 30 minutes and those mice indicating a pain threshold of 50 to 100 mmHg were selected and used. The pain threshold of each mouse was measured at 1 hour after test compound solution mentioned above was administered at 10 ml/kg, s.c. 0.9% Physiological saline solution as a control was administered at 10 ml/kg, s.c . The results were described as an inhibition rate (%) obtained from the following equation. Cutoff level of pressure was defined to be 230 mmHg for the prevention of the damage of mouse tail.
Inhibition rate (%)=(A-B)×100/(C-B)
A: Pain threshold (mmHg) after the administration of test compound solution
B: Pain threshold (mmHg) before the administration of test compound solution
C: Cutoff pressure (230 mmHg)

[4] = test system: carrageenin-induced paw edema; assay: Antiinflammatory activity by the carrageenin-induced hind paw edema; type: in vivo, mice (Std:ddY, male); conditions: mouse, 30 mg/kg p.o., mean ± standard error, n = 6
Protocol: Measurement of Antiinflammatory Activity by the Carrageenin-Induced Hind Paw Edema
Std:ddY Strain male mice (20-25 g) were fasted for one day before the experiment, and were used. After test compounds shown in Table 1 was formed to a salt with tartaric acid, this salt was dissolved in sterilized and distilled water at the rate of 30 mg/10 ml to give the test compound solution. As a control, sterilized and distilled water was used. One hour after the oral administration of test compound solutions, 25 μl of λ-carrageenin suspended in 0.9% physiological saline solution (0.5 mg/25 μl) was injected s.c. under the plantar surface of the right hind paw of a mouse and 25 μl of 0.9% physiological saline solution was injected s.c. under the plantar surface of the left hind paw of the same mouse. Three hours and five hours after carrageenin injection, the […] of the paw was measured with a dial gauge calliper. To the control group, One hour after the oral administration of sterilized and distilled water at the rate of 10 ml/kg, 25 μl of λ-carrageenin (0.5 mg/25 μl) suspended in 0.9% physiological saline solution was injected s.c. under the plantar surface of the right hind paw of a mouse and 25 μl of 0.9% physiological saline solution was injected s.c. under the plantar surface of the left hind paw of the same mouse and the later operation was done in the same manner as in the test compound dosing group mentioned above. The results were described as a swelling rate (%) obtained from the following equation.
Swelling rate (%)=(R-L)×100/L
R: the thickness of the right hind paw
L: the thickness of the left hind paw

SMILES: CCN1CC2(COC)C(O)CC(OC)C34C5CC6(O)C(OC)C(OC(C)=O)C(O)(C5C6OC(=O)c5ccc(Cl)cc5)C(C(OC)C23)C14 (stereo not drawn) [(2), 15-O-acetyl-14-O-p-chlorobenzoylaconine]
- Change of rectal temperature ([1]; 1 mg/kg s.c.): 1.5 ± 0.2 °C
- Change of rectal temperature ([1]; 3 mg/kg s.c.): 0.5 ± 0.2 °C
- Change of rectal temperature ([1]; 10 mg/kg s.c.): 0.3 ± 0.1 °C
- Inhibition rate ([2]; with levallorphan 1 mg/kg s.c. 30 minutes before, 10 min): 86 ± 25%
- Inhibition rate ([2]; with levallorphan 1 mg/kg s.c. 30 minutes before, 20 min): 77 ± 14%
- Inhibition rate ([2]; with levallorphan 1 mg/kg s.c. 30 minutes before, 30 min): 67 ± 22%
- Inhibition rate ([2]; without levallorphan, 10 min): 85 ± 15%
- Inhibition rate ([2]; without levallorphan, 20 min): 80 ± 20%
- Inhibition rate ([2]; without levallorphan, 30 min): 65 ± 21%
- Inhibition rate (tail-pressure method) [3]: 43 ± 10%
- Swelling rate ([4]; 3 hour): 40 ± 9%
- Swelling rate ([4]; 5 hour): 46 ± 9%
